“Also recorded” adds a separate entry of the source.
What was measured:
DU145 cell line = assay: Mouse xenograft study (DU145); details: 100 mg/kg
[1] = system: DU145, LNCaP, LNCaPEGFR, and LNCaPerb2 cell lines; assay: Growth inhibition assay (SRB), comparisons over all four cell lines; type: cell-based
Excerpt: Each point represents the average of at least two independent experiments run in triplicate.

LNCaP-EGFR = assay: Growth inhibition assay (SRB), LNCaP-EGFR; details: 144 h, read-out: IC50 (x ± SD)
Method: (§1) Cell Culture: The human prostate cancer cell line DU145 was obtained from the American Type Culture Collection (Manassas, Va.)). The androgen-sensitive prostate cancer cell lines LNCaP-FGC, LNCaP-EGFR and LNCaP-erbB2 (stably transfected with EGFR erbB2 gene respectively) were generous gifts from Dr. Moulay Aloui-Jamali (Jewish General Hospital, Montreal, Quebec, Canada). […] The cultures were maintained in logarithmic growth by harvesting with a trypsin-EDTA solution containing 0.5 mg/mL trypsin and 0.2 mg/mL EDTA and replating before confluence. In all assays, the cells were plated over a period of time ranging from 24-48 h prior to drug administration.

DU145 = assay: Growth inhibition assay (SRB), DU145; details: Homo sapiens, DU-145, 144 h, read-out: IC50 (x ± SD)
Method: as §1

LNCaP-WT = assay: Growth inhibition assay (SRB), LNCaP-WT; details: 144 h, read-out: IC50 (x ± SD)
Method: as §1

LNCaP-ErbB2 = assay: Growth inhibition assay (SRB), LNCaP-ErbB2; details: 144 h, read-out: IC50 (x ± SD)
Method: as §1

DU145 cells = assay: Alkaline comet assay for quantization of DNA damage; type: cell-based, human; details: DU145 cells, 2 h exposure
Method: Alkaline Comet Assay for Quantization of DNA Damage: A modified alkaline comet assay technique was used for quantization of DNA damage induced in DU145 cells. The cells were exposed to a dose range of the drugs (JDF12, JDF04R, or MTZ) over a period of 2 h and harvested with trypsin-EDTA. The cells were subsequently collected by centrifugation and resuspended in PBS. The resulting cell suspensions were diluted to 3×10^5 cell/mL and mixed with agarose (0.75%) in PBS at 37° C. in a 1:9 dilution. The gels were cast on Gelband strips (Mandel Scientific, Guelph, Ontario, Canada) using gel casting chambers and then immediately placed into a lysis buffer (2.5 M NaCl, 0.1 M tetrasodium EDTA, 10 mM Trisbase, 1% (v/v) N-lauryl sarcosine, 10% (v/v) DMSO, and 1% (v/v) Triton X-100). After being kept overnight at 4° C., the gels were gently rinsed with distilled water and immersed in a second lysis buffer (2.5 M NaCl, 0.1 M tetrasodium EDTA, 10 mM Tris base) containing 1 mg/mL proteinase K for 60 min at 37° C. The cells were subsequently rinsed with distilled water, incubated in alkaline electrophoresis buffer for 30 min at 37° C. and electrophoresed at 400 mA for 20 min. The gels were then rinsed with distilled water and placed into 1 M ammonium acetate for 30 min. The gels were subsequently soaked in 100% ethanol for 2 h, dried overnight and stained with SYBR Gold (1:10000 dilution of stock supplied by Molecular Probes, Eugene, Oreg.) for 20 min. Comets were visualized at 330× magnification and DNA damage was assessed using the tail moment parameter (i.e. the distance between the barycenter of the head and the tail of the comet multiplied by the percentage DNA in the tail region). A minimum of 50 cell comets were analyzed for each sample, using Comet Assay χ v4.2 image analysis software, and the values presented as average tail moments for the entire cell population.
The reactive nature of the latter species makes its detection very difficult. However, the induction of DNA damage (i.e. DNA alkylation) represents evidence of its formation and fleeting presence.

O=C(Nc1ccc2ncnc(Nc3cccc(Cl)c3)c2c1)c1ncn2c(=O)n(CCCl)nnc12 [JDF12]
weight loss during the efficacy study (DU145 cell line; CD-1 mice, FIG. 8c): No weight loss
antitumor activity (DU145 cell line; DU145 xenograft, 100 mg/kg i.p. every other day, 31 days after treatment): significant antitumor activity; also recorded: superior to that of an equidose of Iressa
increased anti-proliferation potency compared to Iressa (fold) ([1]; four cell lines): 2-3 fold
increased anti-proliferation potency compared to MTZ (fold) ([1]; four cell lines): 10-16 fold
more potent than equimolar combination of MTZ with Iressa or JDF04R (fold) ([1]; four cell lines): 1.7 fold
more potent than the equieffective 2-drug combination (fold) ([1]; identical conditions): more than 1.3 fold
IC50 (LNCaP-EGFR): 12 ± 0.57 µM
IC50 (DU145): 11.3 ± 0.22 µM
IC50 (LNCaP-WT): 13.2 ± 3.88 µM
IC50 (LNCaP-ErbB2): 13.3 ± 2.02 µM
DNA damage (tail moment) (DU145 cells): dose-dependent DNA damage
DNA damage, fold less than MTZ (DU145 cells): 2 fold

Source: patent US20120283280A1, “IMIDAZOTETRAZINONE-BASED COMBI-MOLECULES” (priority 2011, published 2012)
